According to patent publication US10030016B2 (Sunesis Pharmaceuticals, Inc., priority 2009, dated 2018):
Read-outs that look alike come from different tables or passages of the source.

Legend:
[1] = tested on: phospho-akt (Thr308) in PC-3 cells; experiment: Inhibition of phospho-akt (Thr308) in PC-3 cells, MSD phospho-akt 308 ELISA kit; type: cell-based; conditions: Homo sapiens, inhibition of P308 Akt in PC-3 cells, 2 hours, no serum, MSD, read-out: EC50
In short: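 Electrochemiluminescent MSD ELISA of Thr308-phosphorylated Akt after a 2 h serum-free compound exposure of PC-3 cells (15,000/well, plated overnight). Controls: DMSO (high), 5 μM wortmannin (low). Lysate binding overnight at 4 °C; detection antibody 1 h at room temperature.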

PDK1 = PDK1 (Homo sapiens (Human), UniProt O15530); experiment: PDK1 kinase assay (coupled PDK1/AKT/FAM-crosstide assay, IMAP fluorescence polarization); type: biochemical; conditions: inhibition of phospo-PDK1 in vitro
Chain of PDK1 (O15530 51-359): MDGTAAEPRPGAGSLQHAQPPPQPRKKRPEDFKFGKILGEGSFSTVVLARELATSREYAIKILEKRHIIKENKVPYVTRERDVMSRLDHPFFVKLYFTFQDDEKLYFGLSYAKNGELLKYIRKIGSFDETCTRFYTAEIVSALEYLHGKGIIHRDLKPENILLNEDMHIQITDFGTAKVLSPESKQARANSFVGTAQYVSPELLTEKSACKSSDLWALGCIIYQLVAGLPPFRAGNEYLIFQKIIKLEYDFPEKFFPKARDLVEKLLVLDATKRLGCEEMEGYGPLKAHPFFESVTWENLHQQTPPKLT
In short: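 PDK1 activity is measured indirectly through activation of a PIFtide-fused AKT2 construct that phosphorylates FAM-crosstide (100 nM). The reaction uses 0.75 nM PDK1, 40 μM ATP, 30 min, 25° C, with IMAP polarization detection.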

Row | EC50 [1] [nM] | IC50 (PDK1) [nM] | EC50 ([1]; PC-3, 2 h) [nM] | SMILES
1 | > 10000 | < 100 |  | CN(C)CCCNS(=O)(=O)c1cnc(NCc2ccc(-c3ccc4ncnc(N)c4c3)s2)c(C(=O)NCc2ccc(F)c(F)c2)c1 [Example 8.6.14, 2-(((5-(4-aminoquinazolin-6-yl)thiophen-2-yl)methyl)amino)-N-(3,4-difluorobenzyl)-5-(N-(3-(dimethylamino)propyl)sulfamoyl) nicotinamide]
2 | > 10000 | < 100 |  | CNC(=O)c1cc(S(=O)(=O)NCc2ccccc2)cnc1NCc1ccc(-c2ccc3ncnc(N)c3c2)s1 [Example 8.6.15, 2-(((5-(4-aminoquinazolin-6-yl)thiophen-2-yl)methyl)amino)-5-(N-benzylsulfamoyl)-N-methylnicotinamide]
3 | > 10000 | > 5000 |  | CCNS(=O)(=O)c1cnc(NCc2ccc(-c3ccc4ncnc(N)c4c3)s2)c(C(=O)NC)c1 [Example 8.6.16, 2-(((5-(4-aminoquinazolin-6-yl)thiophen-2-yl)methyl)amino)-5-(N-ethylsulfamoyl)-N-methylnicotinamide]
4 | 1000 to 10000 | > 5000 |  | CCC(C)NS(=O)(=O)c1cnc(NCc2ccc(-c3ccc4ncnc(N)c4c3)s2)c(C(=O)NC)c1 (stereo not drawn) [Example 8.6.17, 2-(((5-(4-aminoquinazolin-6-yl)thiophen-2-yl)methyl)amino)-5-(N-sec-butylsulfamoyl)-N-methylnicotinamide]
5 | 1000 to 10000 | > 5000 |  | CNC(=O)c1cc(S(=O)(=O)NC(C)(C)C)cnc1NCc1ccc(-c2ccc3ncnc(N)c3c2)s1 [Example 8.6.18, 2-(((5-(4-aminoquinazolin-6-yl)thiophen-2-yl)methyl)amino)-5-(N-t-butylsulfamoyl)-N-methylnicotinamide]
6 | > 10000 | > 5000 |  | CNC(=O)c1cc(S(=O)(=O)N2CCCCC2)cnc1NCc1ccc(-c2ccc3ncnc(N)c3c2)s1 [Example 8.6.19]
7 | > 10000 | 100 to 1000 |  | CC(C)(C)NS(=O)(=O)c1cnc(NCc2ccc(-c3ccc4ncnc(N)c4c3)s2)c(C(=O)NCc2ccc(F)c(F)c2)c1 [Example 8.6.20, 2-(((5-(4-aminoquinazolin-6-yl)thiophen-2-yl)methyl)amino)-5-(N-tert-butylsulfamoyl)-N-(3,4-difluorobenzyl)nicotinamide]
8 | 1000 to 10000 | < 100 |  | Nc1ncnc2ccc(-c3ccc(CNc4ncc(S(N)(=O)=O)cc4C(=O)NCc4ccc(F)c(F)c4)s3)cc12 [Example 8.7.2, 2-({[5-(4-aminoquinazolin-6-yl)thiophen-2-yl]methyl}amino)-N-(3,4-difluorobenzyl)-5-sulfamoylpyridine-3-carboxamide]
9 | 1000 to 10000 | < 100 |  | C[C@H](NC(=O)c1cc(S(N)(=O)=O)cnc1NCc1ccc(-c2ccc3ncnc(N)c3c2)s1)c1ccc(F)c(F)c1 [Example 8.7.3, 2-({[5-(4-aminoquinazolin-6-yl)thiophen-2-yl]methyl}amino)-N-[(1S)-1-(3,4-difluorophenyl)ethyl]-5-sulfamoylpyridine-3-carboxamide]
10 | < 1000 | < 100 |  | CNS(=O)(=O)c1cnc(NCc2ccc(-c3ccc4ncnc(N)c4c3)s2)c(C(=O)N[C@@H](C)c2ccc(F)c(F)c2)c1 [Example 8.7.4, 2-({[5-(4-aminoquinazolin-6-yl)thiophen-2-yl]methyl}amino)-N-[(1S)-1-(3,4-difluorophenyl)ethyl]-5-(methylsulfamoyl) pyridine-3-carboxamide]

The remaining lines, values behind:

Row | SMILES | EC50 [1] [nM] | IC50 (PDK1) [nM] | EC50 ([1]; PC-3, 2 h) [nM]
11 | Nc1ncnc2ccc(-c3ccc(CNc4ncc(NC(=O)Cc5ccccc5)cc4C(=O)NCc4ccc(F)c(F)c4)s3)cc12 [Example 8.5.4, 2-({[5-(4-aminoquinazolin-6-yl)thiophen-2-yl]methyl}amino)-N-(3,4-difluorobenzyl)-5-[(phenylacetyl)amino] pyridine-3-carboxamide] | 1000 to 10000 | 1000 to 5000 | 
12 | Nc1ncnc2ccc(-c3ccc(CNc4ncc(NC(=O)C5CCCC5)cc4C(=O)NCc4ccc(F)c(F)c4)s3)cc12 [Example 8.5.5, 2-({[5-(4-aminoquinazolin-6-yl)thiophen-2-yl]methyl}amino)-5-[(cyclopentylcarbonyl)amino]-N-(3,4-difluorobenzyl) pyridine-3-carboxamide] |  | 100 to 1000 | 1000 to 10000
13 | Nc1ncnc2ccc(-c3ccc(CNc4ncc(NC(=O)C(F)(F)F)cc4C(=O)NCc4ccc(F)c(F)c4)s3)cc12 [Example 8.5.6, 2-({[5-(4-aminoquinazolin-6-yl)thiophen-2-yl]methyl}amino)-N-(3,4-difluorobenzyl)-5-[(trifluoroacetyl)amino] pyridine-3-carboxamide] | 1000 to 10000 | 100 to 1000 | 
14 | Nc1ncnc2ccc(-c3ccc(CNc4ncc(NC(=O)c5ccccc5)cc4C(=O)NCc4ccc(F)c(F)c4)s3)cc12 [Example 8.5.7, 2-({[5-(4-aminoquinazolin-6-yl)thiophen-2-yl]methyl}amino)-N-(3,4-difluorobenzyl)-5-[(phenylcarbonyl)amino] pyridine-3-carboxamide] | > 10000 | 100 to 1000 | 
15 | CN(C)CC(=O)Nc1cnc(NCc2ccc(-c3ccc4ncnc(N)c4c3)s2)c(C(=O)NCc2ccc(F)c(F)c2)c1 [Example 8.5.8, 2-({[5-(4-aminoquinazolin-6-yl)thiophen-2-yl]methyl}amino)-N-(3,4-difluorobenzyl)-5-[(N,N-dimethylglycyl)amino] pyridine-3-carboxamide] | 1000 to 10000 | 100 to 1000 | 
16 | CCS(=O)(=O)Nc1cnc(NCc2ccc(-c3ccc4ncnc(N)c4c3)s2)c(C(=O)NCc2ccc(F)c(F)c2)c1 [Example 8.6.2, 2-({[5-(4-aminoquinazolin-6-yl)thiophen-2-yl]methyl}amino)-N-(3,4-difluorobenzyl)-5-[(ethylsulfonyl)amino] pyridine-3-carboxamide] |  | 100 to 1000 | < 1000
17 | Nc1ncnc2ccc(-c3ccc(CNc4ncc(NS(=O)(=O)C(F)(F)F)cc4C(=O)NCc4ccc(F)c(F)c4)s3)cc12 [Example 8.6.3] | 1000 to 10000 | 100 to 1000 | 
18 | CCCS(=O)(=O)Nc1cnc(NCc2ccc(-c3ccc4ncnc(N)c4c3)s2)c(C(=O)NCc2ccc(F)c(F)c2)c1 [Example 8.6.4] | 1000 to 10000 | 1000 to 5000 | 
19 | CN(C)/C=N/c1cnc(NCc2ccc(-c3ccc4ncnc(N)c4c3)s2)c(C(=O)NCc2ccc(F)c(F)c2)c1 [Example 8.6.5, 2-({[5-(4-aminoquinazolin-6-yl)thiophen-2-yl]methyl}amino)-N-(3,4-difluorobenzyl)-5-{[(E)-(dimethylamino)methylidene]amino}pyridine-3-carboxamide] |  | 100 to 1000 | 1000 to 10000
20 | Nc1ncnc2ccc(-c3ccc(CNc4ncc(NS(=O)(=O)Cc5ccccc5)cc4C(=O)NCc4ccc(F)c(F)c4)s3)cc12 [Example 8.6.6, 2-({[5-(4-aminoquinazolin-6-yl)thiophen-2-yl]methyl}amino)-5-[(benzylsulfonyl)amino]-N-(3,4-difluorobenzyl) pyridine-3-carboxamide] | 1000 to 10000 | 1000 to 5000 | 
21 | Nc1ncnc2ccc(-c3ccc(CNc4ncc(S(=O)(=O)NCc5ccccc5)cc4C(=O)NCc4ccc(F)c(F)c4)s3)cc12 [Example 8.6.7, 2-(((5-(4-aminoquinazolin-6-yl)thiophen-2-yl)methyl)amino)-5-(N-benzylsulfamoyl)-N-(3,4-difluorobenzyl) nicotinamide] | > 10000 | 100 to 1000 | 
22 | Nc1ncnc2ccc(-c3ccc(CNc4ncc(S(=O)(=O)N5CCCCC5)cc4C(=O)NCc4ccc(F)c(F)c4)s3)cc12 [Example 8.6.8, 2-(((5-(4-aminoquinazolin-6-yl)thiophen-2-yl)methyl)amino)-N-(3,4-difluorobenzyl)-5-(piperidin-1-ylsulfonyl) nicotinamide] | > 10000 | 100 to 1000 | 
23 | CCCNS(=O)(=O)c1cnc(NCc2ccc(-c3ccc4ncnc(N)c4c3)s2)c(C(=O)NCc2ccc(F)c(F)c2)c1 [Example 8.6.9, 2-(((5-(4-aminoquinazolin-6-yl)thiophen-2-yl)methyl)amino)-N-(3,4-difluorobenzyl)-5-(N-propylsulfamoyl) nicotinamide] | 1000 to 10000 | 100 to 1000 | 
24 | CN1CCN(S(=O)(=O)c2cnc(NCc3ccc(-c4ccc5ncnc(N)c5c4)s3)c(C(=O)NCc3ccc(F)c(F)c3)c2)CC1 [Example 8.6.10, 2-(((5-(4-aminoquinazolin-6-yl)thiophen-2-yl)methyl)amino)-N-(3,4-difluorobenzyl)-5-(4-methylpiperazin-1-ylsulfonyl)nicotinamide] |  | 100 to 1000 | 1000 to 10000
25 | CCCNS(=O)(=O)c1cnc(NCc2ccc(-c3ccc4ncnc(N)c4c3)s2)c(C(=O)NC)c1 [Example 8.6.11, 2-(((5-(4-aminoquinazolin-6-yl)thiophen-2-yl)methyl)amino)-N-methyl-5-(N-propylsulfamoyl) nicotinamide] | > 10000 | > 5000 | 
26 | CNC(=O)c1cc(S(=O)(=O)N2CCN(C)CC2)cnc1NCc1ccc(-c2ccc3ncnc(N)c3c2)s1 [Example 8.6.12, 2-(((5-(4-aminoquinazolin-6-yl)thiophen-2-yl)methyl)amino)-N-methyl-5-(4-methylpiperazin-1-ylsulfonyl)nicotinamide] | > 10000 | > 5000 | 
27 | NCCNS(=O)(=O)c1cnc(NCc2ccc(-c3ccc4ncnc(N)c4c3)s2)c(C(=O)NCc2ccc(F)c(F)c2)c1 [Example 8.6.13, 5-(N-(2-aminoethyl)sulfamoyl)-2-(((5-(4-aminoquinazolin-6-yl)thiophen-2-yl)methyl)amino)-N-(3,4-difluorobenzyl) nicotinamide] | > 10000 | 1000 to 5000 | 
